This note sets out measurements from ChEMBL document CHEMBL1150514, “Synthesis and HIV-1 reverse transcriptase inhibition properties of two new methylenephosphonate analogues of 3-azido-3-deoxythymidine-5-triphosphate” (Bioorg Med Chem Lett, 1995).

SMILES strings stand for the structures.

This test has as its target Human immunodeficiency virus type 1 reverse transcriptase (Human immunodeficiency virus 1, UniProt Q72547). In words: Inhibitory activity against HIV-1 reverse transcriptase.
Usually IC50 stands for the concentration at which inhibition is half-maximal. Compound `Cc1cn(C2CC(N=[N+]=[N-])C(COP(=O)(O)CCCP(=O)(O)O)O2)c(=O)[nH]c1=O` (stereo not drawn) came in with an IC50 of 39 µM.

With `Cc1cn(C2CC(N=[N+]=[N-])C(COP(=O)(O)CP(=O)(O)CP(=O)(O)O)O2)c(=O)[nH]c1=O` (stereo not drawn), half-maximal inhibition (IC50) required 48 µM.

The compound `Cc1cn([C@H]2C[C@H](N=[N+]=[N-])[C@@H](CO[P@](=O)(O)O[P@](=O)(O)OP(=O)(O)O)O2)c(=O)[nH]c1=O` [ZIDOVUDINE TRIPHOSPHATE] showed an IC50 of 0.043 µM.
